Tests used:
[1] = test system: FcγRIIA; experiment: Immobilized immune complex (IC)-induced ROS generation in FcγRIIA+/γ-/- mouse bone marrow neutrophils (high-throughput screen); format: cell-based; conditions: for ROS RLU ratio: compound at 1.1 μM, mouse BMN ROS induced by immobilized IC
Protocol: Screen of 8,483 compounds was done in collaboration with the Institute of Chemistry and Cell Biology Screening facility at Harvard Medical School (ICCB/Longwood). Each compound was dissolved in DMSO at a concentration of […]. For the primary screen, wells were coated with immune complexes as follows: 0.1 mg/mL poly-L-lysine (Sigma) followed by 2.5% glutaraldehyde were dispensed onto 384-well format black plate (Corning), and the plate was washed once with DDW and twice with PBS, incubated with 100 μL 1 mg/ml bovine serum albumin (BSA) followed by 100 μL 40 μg/mL rabbit anti-BSA antibody to generate in situ immune complexes (IC). Mature murine neutrophils isolated from the bone marrow of FcγRIIA+/γ^-/- mice as previously described, were suspended in 100 uM homovanillic acid/5 U/ml peroxidase IV (Sigma)/1 mM EDTA/HBSS (Thermo) assay solution (pH 7.5) and 3×10^4 cells in 30 μL were loaded per well into a 384-well format plate using a Wellmate automated dispenser (Thermo Scientific). Immediately after dispensing cells, ICCB library compounds dissolved in 33 nL DMSO were dispensed into wells using a Compound Transfer Robot (Epson). The plates were placed in a humidified incubator at 37 C for 60 mins and then fluorescence levels were read out at Ex/Em 321/421 nm with Envision2 (PerkinElmer). PP2 (Sigma), a Src inhibitor known to down-regulate FcγRIIA signal, and DMSO were used as positive and negative control, respectively. All the experiments were performed in duplicate.
An automated high-throughput drug screen in primary neutrophils from mice expressing FcγRIIA on neutrophils and lacking all their endogenous activating murine FcγRs (FcγRIIA^+/γ^-/-) was established to identify compounds that inhibit the activity of FcγRIIA. Immune complex (IC)-induced reactive oxygen species (ROS) generation served as our read-out of FcγRIIA activity. An appropriate positive (PP2, an inhibitor of the FcγR proximal Src-family kinase) and negative (DMSO, vehicle) control was included in the assay. The screen of 8,483 compounds, used at 10 μM in DMSO, yielded 84 hits (1% hit rate) that were defined as those that have an inhibitory potential that is ≧95% of PP2 (FIG. 1A). Of the 30 compounds cherry picked for a secondary screen, ten compounds were identified as having an ability to inhibit neutrophil FcyRIIA induced ROS generation at even lower concentrations (i.e., 1.1 μM or less) (Table 1).

[2] = test system: FcγRIIA; experiment: FcγRIIA cross-linking induced ROS generation in FcγRIIA+/γ-/- mouse BMNs (luminol); format: cell-based; conditions: 100 nM, FIG. 4A
Protocol: 10^6 BMNs were suspended in PBS without Ca^2+/Mg^2+, and then incubated with 10 μg/ml mouse anti-hFcγRIIa (clone IV.3; StemCell Technologies) on ice for 30 minutes. After washing in PBS, cells were incubated with or without 500 ng/ml mGM-CSF (BioLegend) for 30 minutes. After pretreated with Bosutinib at indicated concentrations or DMSO at 37 C for 30 minutes, luminol (50 μM) in PBS with Ca^2+/Mg^2+ was added, followed immediately by the addition of goat anti-mouse F(ab′)2 (36 μg/ml; Jackson ImmunoResearch). ROS generation (expressed in relative light units) was continuously monitored over time using a 6-channel bioluminat LB-953 luminometer (Berthold). For human PMNs, 5×10^5 cells were analyzed without GM-CSF pretreatment.

[3] = mice, gavage; cited from earlier work
[4] = test system: FcγRIIA+/γ-/-/Mac-1-/- mice; experiment: Human lupus serum induced kidney injury model; format: in vivo, mouse
Protocol: Human serum samples were obtained from the Lupus Clinic at the Beth Israel Deaconess Medical Center from patients with SLE diagnosed according to the classification criteria of the American College of Rheumatology as previously described^13. Informed consent was obtained from all patients and healthy donors under a Beth Israel Deaconess Medical Center Institutional Review Board-approved protocol. FcγRIIA+/γ^-/-/Mac1-mice were injected s.c. in both flanks with 2.5 μg human IgG (Jackson ImmunoResearch Laboratories) in CFA (Thermo Scientific and Difco) on day-3. On days 0 and 2, 200 μl sterile serum was injected i.v. The mice were given an oral administration of Bosutinib (150 mg/kg) or a vehicle solution every 24 hrs from day 0 to 14. Spot urine samples and peripheral blood were collected at indicated time points after human serum injection. Both kidneys from euthanized mice were harvested for histological analysis at day 10 or 14. […]

[5] = test system: neutrophils; experiment: Cell viability by Annexin V and propium iodide; format: cell-based; conditions: range of concentrations

SMILES: CN(C)CCCn1cc(C2=C(c3c[nH]c4ccccc34)C(=O)NC2=O)c2ccccc21 [GF109203X]
- ROS RLU ratio [1]: 0.338

SMILES: Cc1cn(-c2cc(NC(=O)c3ccc(C)c(Nc4nccc(-c5cccnc5)n4)c3)cc(C(F)(F)F)c2)cn1 [Nilotinib]
- Neutrophil ROS generation induced by FcγRIIA cross linking [2]: reduced
- Potency compared to Bosutinib in FcγRIIA cross linking ROS [2]: lower

SMILES: Cc1n[nH]c2ccc(-c3cncc(OC[C@@H](N)Cc4c[nH]c5ccccc45)c3)cc12 [A-443654]
- ROS RLU ratio [1]: 0.266

SMILES: Cn1cc(C2=C(c3cn(CCCSC(=N)N)c4ccccc34)C(=O)NC2=O)c2ccccc21 [Ro 31-8220]
- ROS RLU ratio [1]: 0.778

SMILES: COc1cc(Nc2c(C#N)cnc3cc(OCCCN4CCN(C)CC4)c(OC)cc23)c(Cl)cc1Cl [Bosutinib]
- Time of peak blood concentration [3]: 2 to 4 h
- Total leukocyte and neutrophil counts versus vehicle ([4]; hemocytometric analysis, day 14): comparable
- Hb ([4]; peripheral blood, day 14, AVE): 7.98 g/dL
- Neu % ([4]; peripheral blood, day 14, AVE): 25.64%
- Neu total ([4]; peripheral blood, day 14, AVE): 0.7506 K/ul
- Plt total ([4]; peripheral blood, day 14, AVE): 949.8 K/ul
- RBC ([4]; peripheral blood, day 14, AVE): 7.98 M/ul
- WBC total ([4]; peripheral blood, day 14, AVE): 2.656 K/ul
- Cell viability [5]: did not affect cell viability
- ROS RLU ratio [1]: 0.033
- IC50 ([1]; mouse BMNs, FIG. 1C): ~50 nM

SMILES: CN(c1ccccc1CNc1nc(Nc2ccc3c(c2)CC(=O)N3)ncc1C(F)(F)F)S(C)(=O)=O [PF431396]
- ROS RLU ratio [1]: 0.301
